System: barnyard grass (Eo)
Assay: Test Example 1: herbicidal effects by flooded paddy field treatment
Type: in vivo
Set-up: herbicidal effects, Eo (barnyard grass):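 0-5 growth inhibition grade; 5 = over 90%; 4 = 70-90%; 3 = 50-70%; 2 = 30-50%; 1 = 10-30%; 0 = under 10%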
Conditions: dose 100 g active ingredient per 10 ares, examined on the 21st day after treatment, standards of Table 44
Procedure, shortened: (§1)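 Herbicidal effect is a graded score assigned 21 days after treatment. Application was one day after sowing into flooded (3 cm) puddled paddy soil, with diluted wettable powder dropped onto the water at 100 g active ingredient per 10 ares. Plants were kept in a greenhouse.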

Structure (SMILES) | herbicidal effects, Eo (barnyard grass)
CCCc1ncncc1C(CCC)N(C)C(=O)Cc1ccc(C)cc1 (racemic) [1-495] | 5
Cc1ccccc1C(c1cncnc1C(F)(F)F)N(C)C(=O)Cc1ccc(F)cc1 (racemic) [1-551] | 5
CC(C)C(c1cncnc1C(F)(F)F)N(C)C(=O)C(C)(C)c1ccc(Cl)cc1 (racemic) [1-329] | 5
CN(C(=O)Cc1cccs1)C(c1ccccc1)c1cncnc1C(F)(F)F (racemic) [2-19] | 5
C#CCN(C(=O)N(C)C(c1cncnc1C(F)(F)F)C(C)C)c1ccc(F)cc1 (racemic) [1-533] | 5
CCN(C(=O)Cc1ccsc1)C(c1cncnc1C(F)F)C(C)C (racemic) [2-8] | 5
C#CCN(C(=O)Cc1ccccc1)C(c1cncnc1CC)C(C)(C)C (racemic) [1-626] | 5
C#CCN(C(=O)Cc1ccc(Cl)cc1)C(CCC)c1cncnc1CC (racemic) [1-608] | 5
C#CCN(C(=O)Cc1ccc(F)cc1)C(c1cncnc1CC)C(C)(C)C (racemic) [1-627] | 5
Cc1ccc(CC(=O)N(C)C(c2ccccc2F)c2cncnc2C(F)(F)F)cc1 (racemic) [1-549] | 5
COC1(C(c2cncnc2C(C)C)N(C)C(=O)Cc2ccc(C)cc2)OCCO1 (racemic) [1-604] | 5
CN(C(=O)Cc1ccc(Cl)cc1F)C(c1ccccc1)c1cncnc1C(F)(F)F (racemic) [Compound 1-250] | 5

System: monochoria (Mo)
Assay: as above
Type: in vivo
Set-up: herbicidal effects, Mo (monochoria):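 0-5 growth inhibition grade; 5 = over 90%; 4 = 70-90%; 3 = 50-70%; 2 = 30-50%; 1 = 10-30%; 0 = under 10%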
Conditions: dose 100 g active ingredient per 10 ares, examined on the 21st day after treatment, standards of Table 44
Procedure, shortened: as §1

Structure (SMILES) | herbicidal effects, Mo (monochoria)
CCCc1ncncc1C(CCC)N(C)C(=O)Cc1ccc(C)cc1 (racemic) [1-495] | 5
Cc1ccccc1C(c1cncnc1C(F)(F)F)N(C)C(=O)Cc1ccc(F)cc1 (racemic) [1-551] | 5
CC(C)C(c1cncnc1C(F)(F)F)N(C)C(=O)C(C)(C)c1ccc(Cl)cc1 (racemic) [1-329] | 5
CN(C(=O)Cc1cccs1)C(c1ccccc1)c1cncnc1C(F)(F)F (racemic) [2-19] | 5
C#CCN(C(=O)N(C)C(c1cncnc1C(F)(F)F)C(C)C)c1ccc(F)cc1 (racemic) [1-533] | 5
CCN(C(=O)Cc1ccsc1)C(c1cncnc1C(F)F)C(C)C (racemic) [2-8] | 5
C#CCN(C(=O)Cc1ccccc1)C(c1cncnc1CC)C(C)(C)C (racemic) [1-626] | 5
C#CCN(C(=O)Cc1ccc(Cl)cc1)C(CCC)c1cncnc1CC (racemic) [1-608] | 5
C#CCN(C(=O)Cc1ccc(F)cc1)C(c1cncnc1CC)C(C)(C)C (racemic) [1-627] | 5
Cc1ccc(CC(=O)N(C)C(c2ccccc2F)c2cncnc2C(F)(F)F)cc1 (racemic) [1-549] | 5
COC1(C(c2cncnc2C(C)C)N(C)C(=O)Cc2ccc(C)cc2)OCCO1 (racemic) [1-604] | 5
CN(C(=O)Cc1ccc(Cl)cc1F)C(c1ccccc1)c1cncnc1C(F)(F)F (racemic) [Compound 1-250] | 5

System: barnyard grass (Ec)
Assay: Test Example 2: herbicidal effects by upland soil treatment
Type: in vivo
Set-up: scale not given here
Conditions: dose 100 g active ingredient per 10 ares, examined on the 21st day after treatment
Procedure, shortened: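 Pre-emergence test: barnyard grass and green foxtail sown in upland soil, then soil surface sprayed with wettable-powder formulation at 100 g active ingredient per 10 ares (100 l per 10 ares). Grown in greenhouse; herbicidal effect scored on a rating scale 21 days after treatment.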

Structure (SMILES) | Ec (herbicidal effects, index)
CCCc1ncncc1C(CCC)N(C)C(=O)Cc1ccc(C)cc1 (racemic) [1-495] | 5
Cc1ccccc1C(c1cncnc1C(F)(F)F)N(C)C(=O)Cc1ccc(F)cc1 (racemic) [1-551] | 5
CC(C)C(c1cncnc1C(F)(F)F)N(C)C(=O)C(C)(C)c1ccc(Cl)cc1 (racemic) [1-329] | 5
CN(C(=O)Cc1cccs1)C(c1ccccc1)c1cncnc1C(F)(F)F (racemic) [2-19] | 5
C#CCN(C(=O)N(C)C(c1cncnc1C(F)(F)F)C(C)C)c1ccc(F)cc1 (racemic) [1-533] | 5
CCN(C(=O)Cc1ccsc1)C(c1cncnc1C(F)F)C(C)C (racemic) [2-8] | 5
C#CCN(C(=O)Cc1ccccc1)C(c1cncnc1CC)C(C)(C)C (racemic) [1-626] | 5
C#CCN(C(=O)Cc1ccc(Cl)cc1)C(CCC)c1cncnc1CC (racemic) [1-608] | 5
C#CCN(C(=O)Cc1ccc(F)cc1)C(c1cncnc1CC)C(C)(C)C (racemic) [1-627] | 5
Cc1ccc(CC(=O)N(C)C(c2ccccc2F)c2cncnc2C(F)(F)F)cc1 (racemic) [1-549] | 5
COC1(C(c2cncnc2C(C)C)N(C)C(=O)Cc2ccc(C)cc2)OCCO1 (racemic) [1-604] | 5
CN(C(=O)Cc1ccc(Cl)cc1F)C(c1ccccc1)c1cncnc1C(F)(F)F (racemic) [Compound 1-250] | 4

System: barnyard grass (Eo)
Assay: Test Example 4: selectivity for a crop plant by flooded paddy field treatment
Type: in vivo
Set-up: scale not given here
Conditions: barnyard grass, dose 25 gai/10a, 21st day after treatment, index per Table 44
Procedure, shortened: (§2)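 Scores reflect visual herbicidal effect, graded on a standard scale 21 days after water-surface treatment. The product, a wettable powder diluted with water, went on dropwise at 25 g a.i. per 10 ares one day after flooding to 3 cm. Weeds grew from sown seed and rice was transplanted at second-leaf stage.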

Structure (SMILES) | Eo (herbicidal effect index)
CCCc1ncncc1C(CCC)N(C)C(=O)Cc1ccc(C)cc1 (racemic) [1-495] | 5
Cc1ccccc1C(c1cncnc1C(F)(F)F)N(C)C(=O)Cc1ccc(F)cc1 (racemic) [1-551] | 5
CC(C)C(c1cncnc1C(F)(F)F)N(C)C(=O)C(C)(C)c1ccc(Cl)cc1 (racemic) [1-329] | 5
CN(C(=O)Cc1cccs1)C(c1ccccc1)c1cncnc1C(F)(F)F (racemic) [2-19] | 5
C#CCN(C(=O)N(C)C(c1cncnc1C(F)(F)F)C(C)C)c1ccc(F)cc1 (racemic) [1-533] | 5
CCN(C(=O)Cc1ccsc1)C(c1cncnc1C(F)F)C(C)C (racemic) [2-8] | 5
C#CCN(C(=O)Cc1ccccc1)C(c1cncnc1CC)C(C)(C)C (racemic) [1-626] | 5
C#CCN(C(=O)Cc1ccc(Cl)cc1)C(CCC)c1cncnc1CC (racemic) [1-608] | 5
C#CCN(C(=O)Cc1ccc(F)cc1)C(c1cncnc1CC)C(C)(C)C (racemic) [1-627] | 5
Cc1ccc(CC(=O)N(C)C(c2ccccc2F)c2cncnc2C(F)(F)F)cc1 (racemic) [1-549] | 5
COC1(C(c2cncnc2C(C)C)N(C)C(=O)Cc2ccc(C)cc2)OCCO1 (racemic) [1-604] | 5
CN(C(=O)Cc1ccc(Cl)cc1F)C(c1ccccc1)c1cncnc1C(F)(F)F (racemic) [Compound 1-250] | 5

System: monochoria (Mo)
Assay: as above
Type: in vivo
Set-up: scale not given here
Conditions: monochoria, dose 25 gai/10a, 21st day after treatment, index per Table 44
Procedure, shortened: as §2

Structure (SMILES) | Mo (herbicidal effect index)
CCCc1ncncc1C(CCC)N(C)C(=O)Cc1ccc(C)cc1 (racemic) [1-495] | 5
Cc1ccccc1C(c1cncnc1C(F)(F)F)N(C)C(=O)Cc1ccc(F)cc1 (racemic) [1-551] | 5
CC(C)C(c1cncnc1C(F)(F)F)N(C)C(=O)C(C)(C)c1ccc(Cl)cc1 (racemic) [1-329] | 5
CN(C(=O)Cc1cccs1)C(c1ccccc1)c1cncnc1C(F)(F)F (racemic) [2-19] | 5
C#CCN(C(=O)N(C)C(c1cncnc1C(F)(F)F)C(C)C)c1ccc(F)cc1 (racemic) [1-533] | 5
CCN(C(=O)Cc1ccsc1)C(c1cncnc1C(F)F)C(C)C (racemic) [2-8] | 5
C#CCN(C(=O)Cc1ccccc1)C(c1cncnc1CC)C(C)(C)C (racemic) [1-626] | 5
C#CCN(C(=O)Cc1ccc(Cl)cc1)C(CCC)c1cncnc1CC (racemic) [1-608] | 5
C#CCN(C(=O)Cc1ccc(F)cc1)C(c1cncnc1CC)C(C)(C)C (racemic) [1-627] | 5
Cc1ccc(CC(=O)N(C)C(c2ccccc2F)c2cncnc2C(F)(F)F)cc1 (racemic) [1-549] | 5
COC1(C(c2cncnc2C(C)C)N(C)C(=O)Cc2ccc(C)cc2)OCCO1 (racemic) [1-604] | 5
CN(C(=O)Cc1ccc(Cl)cc1F)C(c1ccccc1)c1cncnc1C(F)(F)F (racemic) [Compound 1-250] | 5

System: rice (Or)
Assay: as above
Type: in vivo
Set-up: scale not given here
Conditions: rice transplanted at second leaf stage, dose 25 gai/10a, 21st day after treatment, index per Table 44
Procedure, shortened: as §2

Structure (SMILES) | Or (herbicidal effect index on crop)
CCCc1ncncc1C(CCC)N(C)C(=O)Cc1ccc(C)cc1 (racemic) [1-495] | 0
Cc1ccccc1C(c1cncnc1C(F)(F)F)N(C)C(=O)Cc1ccc(F)cc1 (racemic) [1-551] | 0
CC(C)C(c1cncnc1C(F)(F)F)N(C)C(=O)C(C)(C)c1ccc(Cl)cc1 (racemic) [1-329] | 1
CN(C(=O)Cc1cccs1)C(c1ccccc1)c1cncnc1C(F)(F)F (racemic) [2-19] | 1
C#CCN(C(=O)N(C)C(c1cncnc1C(F)(F)F)C(C)C)c1ccc(F)cc1 (racemic) [1-533] | 1
CCN(C(=O)Cc1ccsc1)C(c1cncnc1C(F)F)C(C)C (racemic) [2-8] | 0
C#CCN(C(=O)Cc1ccccc1)C(c1cncnc1CC)C(C)(C)C (racemic) [1-626] | 1
C#CCN(C(=O)Cc1ccc(Cl)cc1)C(CCC)c1cncnc1CC (racemic) [1-608] | 1
C#CCN(C(=O)Cc1ccc(F)cc1)C(c1cncnc1CC)C(C)(C)C (racemic) [1-627] | 1
Cc1ccc(CC(=O)N(C)C(c2ccccc2F)c2cncnc2C(F)(F)F)cc1 (racemic) [1-549] | 0
COC1(C(c2cncnc2C(C)C)N(C)C(=O)Cc2ccc(C)cc2)OCCO1 (racemic) [1-604] | 1
CN(C(=O)Cc1ccc(Cl)cc1F)C(c1ccccc1)c1cncnc1C(F)(F)F (racemic) [Compound 1-250] | 1

Reference: patent publication US6806230B1, “Pyrimidine derivatives and herbicides containing them” (Kumiai Chemical Industry Co., Ltd., priority 1999, dated 2004)
